Source: US9133225B2, “Dual targeting anticancer agents” (priority 2013, dated 2015)

Tests used:
HeLa cells = test: MTT cytotoxicity assay, HeLa; details: read-out: cytotoxicity IC50; HeLa, cervical; MTT, 48 h treatment; spread in brackets
From the text: (§1) (a) Dulbecco's Modified Eagle Medium (DMEM), Dulbecco's phosphate buffered saline (DPBS), fetal bovine serum (FBS) and 0.25% trypsin/EDTA solutions were purchased from Cellgro (Manassas, Va.). Penicillin-streptomycin solutions were purchased from Mediatech (Manassas, Va.). (b) HeLa (CCL-2TM) cells, A549, A2870, A2870/CP70, MCF-7, PC-3, and MRC-5 cells were purchased from American Type Culture Collection (ATCC, Manassas, Va., USA). (c) HCT116 cells were kindly donated by Laura Trudel (MIT). HeLa, A549, MCF-7, and MRC-5 cells were cultured using DMEM supplemented with 10% FBS and 1% penicillin-streptomycin. A2870, A2870/CP70, and PC-3 cells were cultured in RPMI supplemented with 10% FBS and 1% penicillin-streptomycin. HCT116 cells were cultured in McCoy's supplemented with 10% FBS and 1% penicillin-streptomycin. All cell-culture experiments were performed in the aforementioned media in an incubator operating at 37° C. and in the presence of a humidified atmosphere containing 5.0% CO2. Cells were harvested using a 0.25% trypsin/EDTA solution.
The cytotoxicity of the compounds was assessed by means of the MTT assay (MTT=3-(4,5-dimethyl-2-thiazolyl)-2,5-diphenyl-2H-tetrazolium bromide). Typically, on day one, ˜1×10^3 cells were seeded into 96-well plates in 100 μL media per well. […] The optical density for each well at 550 nm was measured with a microplate reader.

PC-3 cells = test: MTT cytotoxicity assay, PC-3; details: read-out: cytotoxicity IC50; PC-3, prostate; MTT, 48 h treatment; spread in brackets
From the text: as §1
(§2) The cytotoxicity of the compounds was assessed by means of the MTT assay (MTT=3-(4,5-dimethyl-2-thiazolyl)-2,5-diphenyl-2H-tetrazolium bromide). Typically, on day one, ˜1×10^3 cells were seeded into 96-well plates in 100 μL media per well. The last row of the plate was left empty as a control for background absorption. The cells were allowed to grow for 24 h in the incubator at 37° C. On day two, a series of drug dilutions in growth media were prepared immediately prior to cell treatment. The media in the wells of the 96 plates were replaced with 100 μL of growth media containing appropriate drug concentrations. The cells were treated for 48 h at 37° C. in the incubator. On day four, a stock solution of MTT (5 mg/mL in PBS buffer) was diluted with media so that, when 100 μL of the media was added to each well, 10 μL of MTT stock was applied. […] The optical density for each well at 550 nm was measured with a microplate reader.

HCT116 cells = test: MTT cytotoxicity assay, HCT116; details: read-out: cytotoxicity IC50; HCT116, colon; MTT, 48 h treatment; spread in brackets
From the text: as §1, §2

Bcl-xL = test: Immunoblotting analysis of Bcl-xL expression; format: cell-based; details: A549 cells
Method: α-TOS is known to disrupt Bcl-xL-Bax interactions, activate Bax, and thus mediate mitochondrial centered apoptotic cell death. Co-immunoprecipitation studies were carried out to determine whether the Pt(IV)-α-TOS conjugates could behave in a similar manner. […] Additional immunoblotting studies were carried to determine the effect of Pt(IV)(α-TOS)(OEt) treatment on transcription. […] Overall Pt(IV)(α-TOS)(OEt) was able to (1) downregulate Bcl-xL expression and (2) inhibit the interaction of Bcl-xL with Bax, a prerequisite for mitochondrial dysfunction. The former is inherent to cisplatin but not α-TOS, and the latter was inherent to α-TOS but not cisplatin.
A549 cells (5×10^5 cells) were incubated with test compound for 48 h at 37° C. Cells were washed with PBS, scraped into SDS-PAGE loading buffer (64 mM Tris-HCl (pH6.8)/9.6% glycerol/2% SDS/5% β-mercaptoethanol/0.01% Bromophenol Blue) and incubated at 95° C. for 10 min. Whole cell lysates were resolved by 4-20% sodium dodecylsulphate polyacylamide gel electrophoresis (SDS-PAGE; 200 V for 1 h) followed by electro transfer to polyvinylidene difluoride membrane, PVDF (350 mA for 1 h). Membranes were blocked in 5% (w/v) non-fat milk in PBST (PBS/0.1% Tween 20) and incubated with the appropriate primary antibodies (Cell Signalling Technology and Santa Cruz). After incubation with horseradish peroxidase-conjugated secondary antibodies (Cell Signalling Technology), immune complexes were detected with the ECL detection reagent (BioRad) and analysed using an Alpha Innotech ChemiImager™ 5500 fitted with a chemiluminescence filter.

[1] = test system: A2780 ovarian cancer cells; test: PI-annexin-V dual staining apoptosis assay; format: cell-based; details: 4 μM for 48 h

CC[O][Pt]([NH2])([NH2])([Cl])([Cl])[O]C(=O)CCC(=O)Oc1c(C)c(C)c2c(c1C)CCC(C)(CCCC(C)CCCC(C)CCCC(C)C)O2 (stereo not drawn) [Pt(IV)(α-TOS)(OEt)]
IC50 (HeLa cells): 1900 nM | IC50 (PC-3 cells): 2500 nM | IC50 (HCT116 cells): 1240 nM | Bcl-xL expression (Bcl-xL): induced a reduction in Bcl-xL expression | cell population with characteristics of early apoptosis [1]: 28%
